Where two headings read alike, the source gives them in different places.
What was measured:
[1] = biological target: menin/MLL (terbium chelate-labeled menin, FITC-MBM1 peptide) (Homo sapiens (Human), UniProt O00255); assay: Menin/MLL homogenous time-resolved fluorescence (HTRF) assay; type: binding; settings: HTRF-30 min incubation IC50, 30 min incubation;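 note: IC50 from percent inhibition of HTRF signal, normalized between wells without competitor and wells with a saturating competitor that displaces FITC-MBM1 from His-tagged menin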
[2] = system: MOLM14 cells; assay: Proliferation assay (spheroid growth, 8 days), MOLM14; type: cell-based, human; settings: MOLM14, 8 days, read-out: spheroid assay_OneTime MOLM14 IC50;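 note: spheroid size read as confluence by live-cell imaging, compounds added at a range of concentrations with 0.3% DMSO, DMSO-treated wells = 0%, highest reference dose = low control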
[3] = system: OCI-AML3 cells; assay: Proliferation assay (spheroid growth, 8 days), OCI-AML3; type: cell-based, human; settings: OCI-AML3, 8 days
In short: (§1)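 IC50 values derive from day-8 spheroid confluence, normalized between DMSO-treated wells and the highest dose of a reference compound, fitted with a variable slope. Cells grew 8 days at 37° C under a compound concentration series in 0.3% DMSO.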

[4] = system: KO-52 cells; assay: Proliferation assay (spheroid growth, 8 days), KO-52 control cell line; type: cell-based, human; settings: read-out: spheroid assay_OneTime KO-52 IC50
In short: as §1

[5] = system: MEIS1 mRNA; assay: MEIS1 mRNA expression assay (Quantigene Singleplex) in MOLM14 cells; type: cell-based, human; settings: 48 hours incubation;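 note: MEIS1 transcript levels read by probe hybridization and normalized to RPL28 mRNA, with IC50 fitted to fold changes across a rising compound concentration series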
[6] = biological target: hERG potassium channel (Homo sapiens (Human), UniProt Q12809); assay: Effect on membrane potassium current IKr in hERG transfected CHO cells, Protocol 1 (QPatch); type: cell-based
Experimental: 8) Effect on the Membrane Potassium Current IKr in hERG Transfected Cell Lines
• CHO Chinese hamster ovary cell line • DMSO Dimethylsulfoxide • hERG human ether-á-go-go-related gene • IKr rapidly activating delayed-rectifier K^+ current Methods
Experiments were performed using CHO cells stably expressing the hERG potassium channel. Cells were grown at 37° C. and 5% CO2 in culture flasks in Ham's F12 Medium supplemented with 10% heat-inactivated fetal calf serum, hygromycin B (100 μg/ml) and geneticin (100 μg/ml). For use in the automated patch-clamp system QPatch (Sophion) cells were harvested to obtain cell suspension of single cells.
Solutions: The bath solution contained (in mM) 145 NaCl, 4 KCl, 10 glucose, 10 HEPES ((4-(2-hydroxyethyl)-1-piperazineethanesulfonic acid), 2 CaCl2 and 1 MgCl2 (pH 7.4 with NaOH). The pipette solution contained (in mM) 120 KCl, 10 EGTA (Ethylene glycol-bis(2-aminoethylether)-N,N,N′,N′-tetraacetic acid), 10 HEPES, 5.374 CaCl2 and 1.75 MgCl2 (pH 7.2 with KOH).
Patch-clamp experiments were performed in the voltage-clamp mode and whole-cell currents were recorded with an automated patch-clamp assay utilizing the QPatch system (Sophion). Current signals were amplified and digitized, stored and analyzed by using the QPatch assay software.
The holding potential was −80 mV. The hERG current (K^+-selective outward current) was determined as the maximal tail current at −40 mV after a 2 second depolarization to +60 mV. Pulse cycling rate was 15 s. A short pulse (90 ms) to −40 mV served as a baseline step to calculate the tail current amplitude. After establishing whole-cell configuration and a stability period, the solvent control (0.3% DMSO) was applied for 5 minutes followed by the test substance by four increasing concentrations of 3×10^−7 M, 3×10^−6 M, 10^−5 M and 3×10^−5 M. Each concentration of the test substance was applied twice. The effect of each concentration was determined after 5 min as an average current of 3 sequential voltage pulses. To determine the extent of block the residual current was compared with vehicle pre-treatment.
Concentration/response relations were calculated by non-linear least-squares fits to the individual data points. The half-maximal inhibiting concentration (IC50) was calculated by the fitting routine.

[7] = system: iCell Cardiomyocytes2; assay: Ca2+-fluorescence assay in human pluripotent stem cell-derived cardiomyocytes (CTCM human), iCell Cardiomyocytes2; type: cell-based; design: key: Green: No concern; Yellow: Low concern; Red: High concern; Black: Very high concern due to arrhythmic events; settings: 30 min; for Color @ 0.1 μM (hazard score): iCell Cardiomyocytes2, 0.1 μM; for Color @ 0.1 μM (hazard score) / Color @ 1 μM (hazard score): range 0.1-30 μM; for Color @ 0.3 μM (hazard score): iCell Cardiomyocytes2, 0.3 μM; for Color @ 1 μM (hazard score): iCell Cardiomyocytes2, 1 μM; for Color @ 3 μM (hazard score): iCell Cardiomyocytes2, 3 μM; for Color @ 10 μM (hazard score): iCell Cardiomyocytes2, 10 μM; for Color @ 30 μM (hazard score): iCell Cardiomyocytes2, 30 μM
Experimental: 7) Cardio-Electrophysiological Effects of the Testing Compounds in Synchronously Beating Human Pluripotent Stem Cell-Derived Cardiomyocytes (hSC-CMs) Using a Ca^2+-Fluorescence Assay (CTCM Human)
Compounds were tested in the 96-well plates
Compounds were tested at 0.1 μM, 0.2 μM, 0.5 μM, 1 μM, 2.5 μM and 5 μM (n=4 per dose) on Cor.4U 9-Cardiomyocytes or on iCell® Cardiomyocytes2
Alternatively, compounds were tested at 0.1 μM, 0.3 μM; 1 μM, 3 μM, 10 μM and 30 μM (n=4 per dose) mostly on iCell® Cardiomyocytes2
Dimethylsulfoxide (DMSO). The solutions of the compound in DMSO or its solvent (final concentration of 0.1% DMSO; n=8)
Preparation of Test Article and Controls
Tested compounds were dissolved in DMSO at 1000-fold the intended concentrations. A compound “mother-plate” was made, containing the test compounds and positive and negative controls at 1000-fold the final concentrations. At the experiment day, these stock solutions were diluted with Tyrode (Sigma), supplemented with 10 mM HEPES (Gibco), to 2-fold the intended concentration (in round bottom compound plates). Final DMSO concentration in test solutions and vehicle control was 0.1%.
Second line hSC derived cardiomyocyte called iCell®, Cardiomyocytes2 were purchased from FUJIFILM Cellular Dynamics (USA). The experiments with test drugs are carried out 5 to 7 days after plating the cells onto the plate to have a living, beating monolayer of hiPSC-derived cardiomyocytes. The beating monolayer in 96-well-plates are normally taken from 2 Vials of frozen iCell) Cardiomyocytes2 (≈5 million cells/vial), which will be plated onto […] 96-well plates (≈50K/well).
Before Start of Experiment
At least one hour before the start of the experiments the normal cell medium was replaced with Tyrode solution with Calcium dye (see below).
Cal 520 dye (AAT Bioquest) was dissolved in 11 ml of Tyrode supplemented with 10 mM HEPES and warmed up to 37° C. before adding to the cells.
35 μl cell culture medium was removed from each well and replaced with 35 μl of pre-warmed Cal 520 dye solution and cell plate was incubated for 45 min at 37° C./5% CO2. Cells were incubated for 5 min at 37° C.
Spontaneous electrical activity is recorded, using Cal520™ (AAT Bioquest) calcium fluorescence-dye signaling. This dye integrates the total intracellular calcium activity over the whole well. A bottle of Cal520 dye (50 μg, MW: 1103/mol) is dissolved with 50 μl DMSO as a stock solution of 0.9 mM. 50 μL of the stock solution of the dye was added to 10 ml Tryodes solution to have dye concentration of 4.5 μM. Subsequently, 35 μl of this dye solution was added into each well, to have a final dye concentration of 1.58 μM. The current dye protocol on this CTCM human assay was established recently (Ivan Kopljar et al, Journal of Pharmacological and toxicological methods 2018. 91: 80-86; Lu et al., Tox Sci 2019. 170 (2): 345-356).
Fluorescent signals (Ca^2+ transient morphology) were measured using the Functional Drug Screen System (FDSS/μCell; Hamamatsu, Japan) and the recordings were subsequently analyzed off-line, using appropriate software e.g. Notocord.
The cell plate was loaded into the FDSS/μCell for a test run: Ca^2+ transients were measured for 4 minutes to check for synchronous beating of the cardiomyocytes in each well. All 96 wells were measured simultaneously (sampling interval: 0.06 s, short exposure time: 10 ms; excitation wavelength 480 nm; emission wavelength 540 nm; FDSS/μCell warmed to 37° C.).
During the compound addition step, 100 μl of the respective double-concentrated test solutions was pipetted into each well simultaneously.
Data were analyzed off-line using appropriate software e.g. Notocord-Hem (version 4.3).
The following parameters of the Ca^2′ transient morphology were measured: • beat rate (BR) • amplitude of the Ca^2+ transient (Amp), • CTD90: Ca^2+ transient duration at 90% (time to 90% of the initial base value). […]

Sequence of menin/MLL (terbium chelate-labeled menin, FITC-MBM1 peptide) (O00255 other isoform, or with tags, fused parts or gaps): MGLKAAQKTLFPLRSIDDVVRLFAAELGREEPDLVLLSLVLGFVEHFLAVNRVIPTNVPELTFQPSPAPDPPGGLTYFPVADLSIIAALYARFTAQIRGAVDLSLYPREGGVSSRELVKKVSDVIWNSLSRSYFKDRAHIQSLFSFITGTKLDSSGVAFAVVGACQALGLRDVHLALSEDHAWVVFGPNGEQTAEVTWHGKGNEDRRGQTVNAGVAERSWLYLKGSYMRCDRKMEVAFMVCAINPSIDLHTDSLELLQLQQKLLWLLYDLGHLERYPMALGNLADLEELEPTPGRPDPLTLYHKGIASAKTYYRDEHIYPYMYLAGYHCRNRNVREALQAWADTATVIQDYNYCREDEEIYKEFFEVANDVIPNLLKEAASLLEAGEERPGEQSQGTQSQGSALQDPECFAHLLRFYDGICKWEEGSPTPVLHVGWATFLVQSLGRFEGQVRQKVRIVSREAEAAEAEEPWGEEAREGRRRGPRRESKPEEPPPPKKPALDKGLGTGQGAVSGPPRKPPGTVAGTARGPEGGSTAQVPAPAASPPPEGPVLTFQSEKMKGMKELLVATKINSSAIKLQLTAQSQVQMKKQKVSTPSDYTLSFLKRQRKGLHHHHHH
Sequence of hERG potassium channel (Q12809 whole entry): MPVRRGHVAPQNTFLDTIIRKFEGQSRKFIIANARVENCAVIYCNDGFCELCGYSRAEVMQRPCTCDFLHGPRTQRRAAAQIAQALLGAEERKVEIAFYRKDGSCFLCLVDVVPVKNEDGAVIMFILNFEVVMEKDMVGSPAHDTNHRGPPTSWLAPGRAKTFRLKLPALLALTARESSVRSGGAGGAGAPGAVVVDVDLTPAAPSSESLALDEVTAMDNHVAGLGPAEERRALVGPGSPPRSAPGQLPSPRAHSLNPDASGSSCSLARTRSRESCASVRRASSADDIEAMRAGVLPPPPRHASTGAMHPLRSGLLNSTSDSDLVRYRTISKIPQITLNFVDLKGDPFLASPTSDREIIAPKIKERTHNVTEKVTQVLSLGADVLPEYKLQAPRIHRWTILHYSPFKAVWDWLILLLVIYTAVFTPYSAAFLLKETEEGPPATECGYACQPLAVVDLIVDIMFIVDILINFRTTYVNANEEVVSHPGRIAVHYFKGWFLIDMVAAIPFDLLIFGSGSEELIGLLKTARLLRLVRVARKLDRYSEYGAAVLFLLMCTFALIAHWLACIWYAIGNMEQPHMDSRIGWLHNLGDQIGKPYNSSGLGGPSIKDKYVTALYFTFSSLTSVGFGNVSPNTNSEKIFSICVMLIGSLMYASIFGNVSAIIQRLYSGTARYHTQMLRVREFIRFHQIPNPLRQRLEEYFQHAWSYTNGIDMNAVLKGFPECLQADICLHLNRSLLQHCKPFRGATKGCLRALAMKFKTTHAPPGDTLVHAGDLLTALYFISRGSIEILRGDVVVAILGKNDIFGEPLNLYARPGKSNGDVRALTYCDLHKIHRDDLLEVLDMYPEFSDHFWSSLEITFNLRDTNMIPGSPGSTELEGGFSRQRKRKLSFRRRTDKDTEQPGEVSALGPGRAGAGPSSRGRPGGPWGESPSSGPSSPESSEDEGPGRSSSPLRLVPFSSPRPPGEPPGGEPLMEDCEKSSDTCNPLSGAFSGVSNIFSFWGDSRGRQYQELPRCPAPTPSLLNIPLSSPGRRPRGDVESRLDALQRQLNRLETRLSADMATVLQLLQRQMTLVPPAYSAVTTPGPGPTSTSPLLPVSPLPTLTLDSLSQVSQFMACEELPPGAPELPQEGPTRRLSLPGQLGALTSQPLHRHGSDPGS

IC50 [1]	IC50 ([2]; Homo sapiens, MOLM-14, […])	IC50 ([3]; Homo sapiens, OCI-AML-3, […])	IC50 ([5]; Homo sapiens, MOLM-14, 48 h)	IC50 [2]	IC50 [3]	IC50 [5]	Structure (SMILES)	IC50 ([4]; Homo sapiens, […])	IC50 [6]	Color @ 0.1 μM (hazard score) [7]	Color @ 0.3 μM (hazard score) [7]	Color @ 1 μM (hazard score) [7]	Color @ 3 μM (hazard score) [7]	Color @ 10 μM (hazard score) [7]	Color @ 30 μM (hazard score) [7]	IC50 [4]
0.067 nM	130 nM	470 nM	99 nM				CCN(C(=O)c1cc(F)ccc1Oc1nncnc1N1CCC2(C1)CN([C@H](CCC(C)(C)N)C(C)C)C2)C(C)C (single isomer, unassigned) [Compound 30, (*R)-2-((5-(2-(6-amino-2,6-dimethylheptan-3-yl)-2,6-diazaspiro[3.4]octan-6-yl)-1,2,4-triazin-6-yl)oxy)-N-ethyl-5-fluoro-N-isopropylbenzamide]	> 15000 nM	> 30200 nM							
0.1 nM	58 nM	280 nM	88 nM				CCN(C(=O)c1cc(F)ccc1Oc1nncnc1N1CCC2(C1)CN([C@H](CCC(C)(C)N(C)C)C(C)C)C2)C(C)C (single isomer, unassigned) [Compound 32, (*R)-2-((5(2-(6-(dimethylamino)-2,6-dimethylheptan-3-yl)-2,6-diazaspiro[3.4]octan-6-yl)-1,2,4-triazin-6-yl)oxy)-N-ethyl-5-fluoro-N-isopropylbenzamide]	12900 nM	> 30200 nM							
0.87 nM	3840 nM	3440 nM	> 1000 nM				CCN(C(=O)c1cc(F)ccc1Oc1nncnc1N1CCC2(C1)CN([C@H](CCC(C)(C)NC(C)=O)C(C)C)C2)C(C)C (single isomer, unassigned) [Compound 34]	> 15000 nM	> 30200 nM							

Continued, compound first:

Structure (SMILES)	IC50 [1]	IC50 ([2]; Homo sapiens, MOLM-14, […])	IC50 ([3]; Homo sapiens, OCI-AML-3, […])	IC50 ([5]; Homo sapiens, MOLM-14, 48 h)	IC50 [2]	IC50 [3]	IC50 [5]	IC50 ([4]; Homo sapiens, […])	IC50 [6]	Color @ 0.1 μM (hazard score) [7]	Color @ 0.3 μM (hazard score) [7]	Color @ 1 μM (hazard score) [7]	Color @ 3 μM (hazard score) [7]	Color @ 10 μM (hazard score) [7]	Color @ 30 μM (hazard score) [7]	IC50 [4]
CCN(C(=O)c1cc(F)ccc1Oc1nncnc1N1CCC2(C1)CN([C@H](CCCN(C)C(=O)OC)C(C)C)C2)C(C)C [Compound 22, methyl (R)-(4-(6-(6-(2-(ethyl(isopropyl)carbamoyl)-4-fluorophenoxy)-1,2,4-triazin-5-yl)-2,6-diazaspiro[3.4]octan-2-yl)-5-methylhexyl)(methyl)carbamate]	1.79 nM	360 nM		~760 nM				12800 nM	20900 nM							
CCN(C(=O)c1cc(F)ccc1Oc1nncnc1N1CCC2(C1)CN(C(CCCO)C(C)C)C2)C(C)C (stereo not drawn) [Compound 49, N-ethyl-5-fluoro-2-((5-(2-(6-hydroxy-2-methylhexan-3-yl)-2,6-diazaspiro[3.4]octan-6-yl)-1,2,4-triazin-6-yl)oxy)-N-isopropylbenzamide]									> 30200 nM							
CCN(C(=O)c1cc(F)ccc1Oc1nncnc1N1CCC2(C1)CN([C@H](CCCN(C)CCOC)C(C)C)C2)C(C)C [Compound 70a]										Green	Green	Green	Green	Green	yellow	
CCN(CCC[C@H](C(C)C)N1CC2(CCN(c3ncnnc3Oc3ccc(F)cc3C(=O)N(CC)C(C)C)C2)C1)CCOC [Compound 71, (R)-N-ethyl-2-((5-(2-(6-(ethyl(2-methoxyethyl)amino)-2-methylhexan-3-yl)-2,6-diazaspiro[3.4]octan-6-yl)-1,2,4-triazin-6-yl)oxy)-5-fluoro-N-isopropylbenzamide]		560 nM	1470 nM	380 nM				12800 nM	> 30200 nM							
CCN(C(=O)c1cc(F)ccc1Oc1nncnc1N1CCC2(C1)CN([C@H](CCCN(C)CCO)C(C)C)C2)C(C)C [Compound 286, (R)-N-ethyl-5-fluoro-2-((5-(2-(6-((2-hydroxyethyl)(methyl)amino)-2-methylhexan-3-yl)-2,6-diazaspiro[3.4]octan-6-yl)-1,2,4-triazin-6-yl)oxy)-N-isopropylbenzamide]					76 nM	290 nM	96 nM			Green	Green	Green	Green	Green	Green	22900 nM
CCN(C(=O)c1cc(F)ccc1Oc1nncnc1N1CCC2(C1)CN([C@H](CCCNC)C(C)C)C2)C(C)C [Compound 398, (R)-N-ethyl-5-fluoro-N-isopropyl-2-((5-(2-(2-methyl-6-(methylamino)hexan-3-yl)-2,6-diazaspiro[3.4]octan-6-yl)-1,2,4-triazin-6-yl)oxy)benzamide]		64 nM	220 nM					> 15000 nM		Green	Green	Green	Green	Green	Green	

Source: patent publication US12473295B2, “Substituted straight chain spiro derivatives” (Janssen Pharmaceutica NV, priority 2019, dated 2025)
